Experimental data taken from ChEMBL document CHEMBL1201862, “PubChem BioAssay data set” (2004).
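Dose response: 5 concentrations. Exposure: 48 h. Format: 96-well plates. Endpoint: linear interpolation; highest concentration if not reached. GI50 = concentration required for 50% inhibition of growth.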 Activity calls are given as the source filed them. Cut-off read from the data, not from the text of the source: active = GI50 up to about 1.1 µM and inactive = higher.

Key:
Experiment in all cases: NCI anticancer screen, dose series, 48 h
[1] = system: CAKI-1
[2] = system: HL-60
[3] = system: HOP-62
[4] = system: HT-29
[5] = system: IGROV-1
[6] = system: K562
[7] = system: M14
[8] = system: Malme-3M
[9] = system: NCI-H23
[10] = system: OVCAR-4
[11] = system: RPMI-8226
[12] = system: SF-295
[13] = system: SF-539
[14] = system: SK-OV-3
[15] = system: SN12C
[16] = system: SNB-19
[17] = system: SNB-75
[18] = system: NCI-H522
[19] = system: UO-31

Measured: GI50

O=c1cc[nH]c2ccc3nn[nH]c3c12
inactive: [1] > 100 µM | [2] > 100 µM | [3] > 100 µM | [4] > 100 µM | [5] > 100 µM | [6] > 100 µM | [7] > 100 µM | [8] > 100 µM | [9] > 100 µM | [10] > 100 µM | [11] > 100 µM | [12] > 100 µM | [13] > 100 µM | [14] > 100 µM | [15] > 100 µM | [16] > 100 µM | [17] > 100 µM

COc1ccc(CC#N)c(OCc2ccccc2)c1
inactive: [1] > 100 µM | [2] > 10 µM | [3] > 100 µM | [5] 29.4 µM | [6] 58.6 µM | [7] 35.6 µM | [8] 22 µM | [9] 77.8 µM | [18] 38.9 µM | [10] 71.6 µM | [11] 43.3 µM | [12] 60 µM | [13] > 100 µM | [15] 51.5 µM | [16] 40.6 µM | [19] 42.2 µM

CCN(C1=CC(=O)NC2CCCCN12)c1ccccc1 (configuration not stated)
inactive: [1] > 100 µM | [3] > 100 µM | [4] > 100 µM | [5] > 100 µM | [6] > 100 µM | [7] > 100 µM | [8] > 100 µM | [9] > 100 µM | [10] > 100 µM | [11] > 100 µM | [12] > 100 µM | [13] > 100 µM | [14] > 100 µM | [15] > 100 µM | [16] > 100 µM | [17] > 100 µM | [19] > 10 µM

NC1=NN(c2ccccc2)C(=O)C1C(=O)C(=O)Nc1ccccc1 (configuration not stated)
inactive: [1] > 100 µM | [2] > 100 µM | [3] > 100 µM | [4] > 100 µM | [5] > 100 µM | [6] > 100 µM | [7] > 100 µM | [8] > 100 µM | [9] > 100 µM | [18] > 100 µM | [10] > 100 µM | [11] > 100 µM | [12] > 100 µM | [13] > 100 µM | [14] > 100 µM | [15] > 100 µM | [16] > 100 µM | [19] > 100 µM

N#CSC/C(Cl)=C/Cl.N#CSC/C(Cl)=C\Cl
inactive: [2] 43.9 µM | [3] > 100 µM | [4] > 100 µM | [5] > 100 µM | [6] > 100 µM | [7] > 100 µM | [8] > 100 µM | [9] > 100 µM | [18] > 100 µM | [10] > 100 µM | [11] 92.3 µM | [12] > 100 µM | [13] > 100 µM | [14] > 100 µM | [15] > 100 µM | [16] > 100 µM | [17] > 100 µM | [19] > 100 µM

C(=N\CC/N=C/c1cccc2ccccc12)/c1cccc2ccccc12
inactive: [1] > 100 µM | [4] > 100 µM | [5] > 100 µM | [6] > 100 µM | [8] > 100 µM | [9] > 100 µM | [18] > 100 µM | [10] > 100 µM | [11] > 100 µM | [12] > 100 µM | [13] > 100 µM | [14] 22.1 µM | [15] > 100 µM | [16] > 100 µM | [17] 12.6 µM | [19] > 100 µM

O=C(N=C1N(c2ccccc2)C(=O)C(=O)N1c1ccccc1)c1ccccc1
inactive: [1] 13.5 µM | [2] 31.2 µM | [3] 11.5 µM | [4] 13.7 µM | [5] 10.5 µM | [6] 29.2 µM | [8] 17.4 µM | [9] 13.6 µM | [18] 1.66 µM | [10] 2.95 µM | [11] 13.8 µM | [12] 11.3 µM | [13] 12.6 µM | [14] 4.68 µM | [15] 10.6 µM | [16] 13.3 µM | [17] 11.3 µM | [19] 14.5 µM

c1ccc(C2OCCO2)c(OCCOc2cc(OCCOc3ccccc3C3OCCO3)c(OCCOc3ccccc3C3OCCO3)cc2OCCOc2ccccc2C2OCCO2)c1
inactive: [1] > 100 µM | [2] > 100 µM | [3] 13.3 µM | [4] > 100 µM | [5] 12.4 µM | [6] > 100 µM | [7] 26.7 µM | [8] 43.1 µM | [9] 11.3 µM | [18] 2.42 µM | [10] 8.34 µM | [11] > 100 µM | [12] 17.9 µM | [13] 10.7 µM | [14] 2.76 µM | [15] > 100 µM | [17] 2.16 µM | [19] 12.9 µM

CCN(CC)CCCCC1CCN(CC(=O)N2c3cc(Cl)ccc3NC(=O)CC2C)CC1 (configuration not stated)
inactive: [1] > 100 µM | [2] > 100 µM | [3] > 100 µM | [4] > 100 µM | [5] > 100 µM | [6] 79.6 µM | [7] > 100 µM | [8] > 100 µM | [9] > 100 µM | [10] > 100 µM | [11] > 100 µM | [12] > 100 µM | [14] > 100 µM | [15] > 100 µM | [16] > 100 µM | [19] > 100 µM

CCCCNC(=O)C1C(=O)N(CCCC)C(=O)/C1=N\N (configuration not stated)
inactive: [1] > 100 µM | [3] > 100 µM | [4] > 100 µM | [5] > 100 µM | [6] > 100 µM | [7] > 100 µM | [8] > 100 µM | [9] > 100 µM | [18] > 100 µM | [10] > 100 µM | [11] > 100 µM | [12] > 100 µM | [13] > 100 µM | [14] > 100 µM | [15] > 100 µM | [16] > 100 µM | [17] > 100 µM | [19] > 100 µM

O=C(O)/C(=C/c1c(O)ccc2ccccc12)c1csc(-c2nc(/C(=C\c3c(O)ccc4ccccc34)C(=O)O)cs2)n1
inactive: [2] 8.45 µM | [3] 10 µM | [4] 22.2 µM | [5] 11.1 µM | [6] 15.8 µM | [7] 11.7 µM | [8] 1.61 µM | [9] 9.55 µM | [11] 9.38 µM | [12] 11.2 µM | [13] 6.17 µM | [14] 12.3 µM | [16] 13.5 µM | [17] 11 µM | [19] 1.53 µM

ClC(Cl)[Si]12OCCN(CCO1)CCO2
inactive: [1] > 100 µM | [2] > 100 µM | [4] > 100 µM | [5] > 100 µM | [6] > 100 µM | [8] > 100 µM | [9] > 100 µM | [18] > 100 µM | [11] > 100 µM | [12] > 100 µM | [13] > 100 µM | [14] > 100 µM | [15] > 100 µM | [16] > 100 µM | [17] > 100 µM | [19] > 100 µM

C=CCC1OC(C)(C)Oc2ccc(OCOCCOC)cc21 (configuration not stated)
inactive: [1] > 100 µM | [3] > 100 µM | [4] > 100 µM | [5] > 100 µM | [6] > 100 µM | [7] > 100 µM | [8] > 100 µM | [9] > 100 µM | [10] > 100 µM | [12] > 100 µM | [13] > 100 µM | [14] > 100 µM | [15] > 100 µM | [16] > 100 µM | [17] > 100 µM | [19] > 100 µM

Cc1ccccc1NC(=O)C1C(=O)N(c2ccccc2C)C(=O)/C1=N\NC(N)=O (configuration not stated)
inactive: [1] > 100 µM | [2] > 100 µM | [3] > 100 µM | [4] > 100 µM | [5] > 100 µM | [6] > 100 µM | [7] > 100 µM | [8] > 100 µM | [9] > 100 µM | [18] > 100 µM | [10] > 100 µM | [12] > 100 µM | [13] > 100 µM | [15] > 100 µM | [16] > 100 µM | [17] 37.5 µM | [19] > 100 µM

CC(=O)OC1c2ccccc2CC2(OC(C)=O)c3ccccc3C12 (configuration not stated)
inactive: [1] > 100 µM | [2] > 10 µM | [3] > 100 µM | [4] > 100 µM | [5] > 100 µM | [6] > 100 µM | [7] > 100 µM | [8] > 100 µM | [9] > 100 µM | [10] > 100 µM | [11] > 100 µM | [12] > 100 µM | [13] > 100 µM | [14] > 100 µM | [15] > 100 µM | [16] > 100 µM | [17] > 100 µM | [19] > 100 µM

CCN(CC)CCNC(=O)c1ccc([N+](=O)[O-])cc1OC
inactive: [1] > 100 µM | [2] > 100 µM | [3] > 100 µM | [4] > 100 µM | [5] > 100 µM | [6] > 100 µM | [7] > 100 µM | [8] > 100 µM | [9] > 100 µM | [18] > 100 µM | [10] > 100 µM | [12] > 100 µM | [13] > 100 µM | [14] > 100 µM | [15] > 100 µM | [16] > 100 µM | [17] > 100 µM | [19] > 100 µM
